The target of this experiment is JNK3 (Homo sapiens, UniProt P53779). In words: Measurement of JNK3 enzyme activity. The format is biochemical. The source says:
Experimental Example 1. Measurement of JNK3 Enzyme Activity

SMILES strings stand for the structures.

Chain of JNK3 (P53779 whole entry, species assumed): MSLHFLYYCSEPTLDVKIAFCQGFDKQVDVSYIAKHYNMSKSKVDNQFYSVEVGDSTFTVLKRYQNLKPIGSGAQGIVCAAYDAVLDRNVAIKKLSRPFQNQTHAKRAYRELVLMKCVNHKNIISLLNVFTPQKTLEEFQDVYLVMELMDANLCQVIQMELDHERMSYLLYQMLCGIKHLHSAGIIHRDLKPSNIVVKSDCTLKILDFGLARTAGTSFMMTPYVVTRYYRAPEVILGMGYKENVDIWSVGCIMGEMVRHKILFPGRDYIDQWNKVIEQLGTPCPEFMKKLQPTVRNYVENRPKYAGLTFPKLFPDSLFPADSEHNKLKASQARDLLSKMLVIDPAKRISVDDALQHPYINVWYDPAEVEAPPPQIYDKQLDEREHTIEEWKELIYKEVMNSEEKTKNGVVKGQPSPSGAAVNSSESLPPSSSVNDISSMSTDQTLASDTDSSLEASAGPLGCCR

`CCOC(=O)C1Cc2nc(-c3ccc4ccccc4c3)n(-c3ccnc(N[C@@H]4CCCN(C(=O)C5CC5)C4)n3)c2C1` (stereo partly drawn) [Compound 19c, ethyl 1-(2-(((R)-1-(cyclopropanecarbonyl)piperidin-3-yl)amino)pyrimidin-4-yl)-2-(naphthalen-2-yl)-1,4,5,6-tetracyclopenta[d]imidazol-5-carboxylate] showed an IC50 (Table 3) of less than 30 nM. `NC(=O)C1Cc2nc(-c3ccc4c(c3)CCO4)n(-c3ccnc(N[C@H]4CCCN(C(=O)C5CC5)C4)n3)c2C1` (stereo partly drawn) [Compound 22e, 1-(2-(((S)-1-(cyclopropanecarbonyl)piperidin-3-yl)amino)pyrimidin-4-yl)-2-(2,3-dihydrobenzofuran-5-yl)-1,4,5,6-tetracyclopenta[d]imidazol-5-carboxamide] displayed an IC50 (Table 5) of less than 30 nM. The molecule `NC(=O)C1Cc2nc(-c3ccc(F)c(C(F)(F)F)c3)n(-c3ccnc(N[C@H]4CCN(C(=O)C5CC5)C4)n3)c2C1` (stereo partly drawn) [Compound 20a, 1-(2-(((S)-1-(cyclopropanecarbonyl)pyrrolidine-3-yl)amino)pyrimidin-4-yl)-2-(4-fluoro-3-(trifluoromethyl)phenyl)-1,4,5,6-tetracyclopenta[d]imidazol-5-carboxamide] had a half-maximal inhibitory concentration (IC50) (Table 1) of more than 1000 nM. Where the note is “Table 2”, `CCOC(=O)C1Cc2nc(-c3ccc(Cl)c(Cl)c3)n(-c3ccnc(N[C@H]4CCCN(C(=O)C5CC5)C4)n3)c2C1` (stereo partly drawn) [Compound 18b, ethyl 1-(2-(((S)-1-(cyclopropanecarbonyl)piperidin-3-yl)amino)pyrimidin-4-yl)-2-(3,4-dichlorophenyl)-1,4,5,6-tetracyclopenta[d]imidazol-5-carboxylate] showed a half-maximal inhibitory concentration (IC50) of less than 30 nM. Where the note is “Table 4”, `CCOC(=O)C1Cc2nc(-c3ccc4c(c3)OCO4)n(-c3ccnc(N[C@@H]4CCN(C(=O)C5CC5)C4)n3)c2C1` (stereo partly drawn) [Compound 17d, ethyl 2-(benzo[d][1,3]dioxol-5-yl)-1-(2-(((R)-1-(cyclopropanecarbonyl)pyrrolidine-3-yl)amino)pyrimidin-4-yl)-1,4,5,6-tetracyclopenta[d]imidazol-5-carboxylate] displayed an IC50 of less than 30 nM. With `CCOC(=O)C1Cc2nc(-c3ccc(Cl)c(Cl)c3)n(-c3ccnc(N[C@@H]4CCN(C(=O)C5CC5)C4)n3)c2C1` (stereo partly drawn) [Compound 17b, ethyl 1-(2-(((R)-1-(cyclopropanecarbonyl)pyrrolidine-3-yl)amino)pyrimidin-4-yl)-2-(3,4-dichlorophenyl)-1,4,5,6-tetracyclopenta[d]imidazol-5-carboxylate], the IC50 (Table 2) is less than 30 nM. For the setting “Table 1”, `CCOC(=O)C1Cc2nc(-c3ccc(F)c(C(F)(F)F)c3)n(-c3ccnc(N[C@@H]4CCCN(C(=O)C5CC5)C4)n3)c2C1` (stereo partly drawn) [Compound 19a, ethyl 1-(2-(((R)-1-(cyclopropanecarbonyl)piperidin-3-yl)amino)pyrimidin-4-yl)-2-(4-fluoro-3-(trifluoromethyl)phenyl)-1,4,5,6-tetracyclopenta[d]imidazol-5-carboxylate] registered an IC50 of less than 30 nM.

For `CCOC(=O)C1Cc2nc(-c3ccc4c(c3)CCO4)n(-c3ccnc(N[C@@H]4CCCN(C(=O)C5CC5)C4)n3)c2C1` (stereo partly drawn) [Compound 19e, ethyl 1-(2-(((R)-1-(cyclopropanecarbonyl)piperidin-3-yl)amino)pyrimidin-4-yl)-2-(2,3-dihydrobenzofuran-5-yl)-1,4,5,6-tetracyclopenta[d]imidazol-5-carboxylate], the IC50 (Table 5) was less than 30 nM. Molecule `NC(=O)C1Cc2nc(-c3ccc(F)c(C(F)(F)F)c3)n(-c3ccnc(N[C@@H]4CCN(C(=O)C5CC5)C4)n3)c2C1` (stereo partly drawn) [Compound 21a, 1-(2-(((R)-1-(cyclopropanecarbonyl)pyrrolidine-3-yl)amino)pyrimidin-4-yl)-2-(4-fluoro-3-(trifluoromethyl)phenyl)-1,4,5,6-tetracyclopenta[d]imidazol-5-carboxamide] had an IC50 (Table 1) of more than 1000 nM. Consider `CNC(=O)C1Cc2nc(-c3ccc4ccccc4c3)n(-c3ccnc(N[C@H]4CCCN(C(=O)C5CC5)C4)n3)c2C1` (stereo partly drawn) [Compound 26c, 1-(2-(((S)-1-(cyclopropanecarbonyl)piperidin-3-yl)amino)pyrimidin-4-yl)-2-(naphthalen-2-yl)-N-methyl-1,4,5,6-tetracyclopenta[d]imidazol-5-carboxamide], for which the half-maximal inhibitory concentration (IC50) (Table 3) was less than 30 nM. Take `CNC(=O)C1Cc2nc(-c3ccc(F)c(C(F)(F)F)c3)n(-c3ccnc(N[C@@H]4CCN(C(=O)C5CC5)C4)n3)c2C1` (stereo partly drawn) [Compound 25a, 1-(2-(((R)-1-(cyclopropanecarbonyl)pyrrolidine-3-yl)amino)pyrimidin-4-yl)-2-(4-fluoro-3-(trifluoromethyl)phenyl)-N-methyl-1,4,5,6-tetracyclopenta[d]imidazol-5-carboxamide]: the 50% inhibitory concentration (IC50) (Table 1) is more than 1000 nM. For the setting “Table 4”, `CCOC(=O)C1Cc2nc(-c3ccc4c(c3)OCO4)n(-c3ccnc(N[C@H]4CCCN(C(=O)C5CC5)C4)n3)c2C1` (stereo partly drawn) [Compound 18d, ethyl 2-(benzo[d][1,3]dioxol-5-yl)-1-(2-(((S)-1-(cyclopropanecarbonyl)piperidin-3-yl)amino)pyrimidin-4-yl)-1,4,5,6-tetracyclopenta[d]imidazol-5-carboxylate] yielded an IC50 of less than 30 nM. Molecule `CCOC(=O)C1Cc2nc(-c3ccc(F)c(C(F)(F)F)c3)n(-c3ccnc(N[C@@H]4CCN(C(=O)C5CC5)C4)n3)c2C1` (stereo partly drawn) [Compound 17a, ethyl 1-(2-(((R)-1-(cyclopropanecarbonyl)pyrrolidine-3-yl)amino)pyrimidin-4-yl)-2-(4-fluoro-3-(trifluoromethyl)phenyl)-1,4,5,6-tetracyclopenta[d]imidazol-5-carboxylate] displayed a 50% inhibitory concentration (IC50) (Table 1) of less than 30 nM. As to `CCOC(=O)C1Cc2nc(-c3ccc(Cl)c(Cl)c3)n(-c3ccnc(N[C@H]4CCN(C(=O)C5CC5)C4)n3)c2C1` (stereo partly drawn) [Compound 16b, ethyl 1-(2-(((S)-1-(cyclopropanecarbonyl)pyrrolidine-3-yl)amino)pyrimidin-4-yl)-2-(3,4-dichlorophenyl)-1,4,5,6-tetracyclopenta[d]imidazol-5-carboxylate], under “Table 2”, the IC50 is less than 30 nM. As for `NC(=O)C1Cc2nc(-c3ccc4ccccc4c3)n(-c3ccnc(N[C@H]4CCCN(C(=O)C5CC5)C4)n3)c2C1` (stereo partly drawn) [Compound 22c, 1-(2-(((S)-1-(cyclopropanecarbonyl)piperidin-3-yl)amino)pyrimidin-4-yl)-2-(naphthalen-2-yl)-1,4,5,6-tetracyclopenta[d]imidazol-5-carboxamide], the IC50 (Table 3) was less than 30 nM. With `CCOC(=O)C1Cc2nc(-c3ccc4c(c3)OCO4)n(-c3ccnc(N[C@@H]4CCCN(C(=O)C5CC5)C4)n3)c2C1` (stereo partly drawn) [Compound 19d, ethyl 2-(benzo[d][1,3]dioxol-5-yl)-1-(2-(((R)-1-(cyclopropanecarbonyl)piperidin-3-yl)amino)pyrimidin-4-yl)-1,4,5,6-tetracyclopenta[d]imidazol-5-carboxylate], the concentration for half-maximal inhibition (IC50) (Table 4) is less than 30 nM.

For `NC(=O)C1Cc2nc(-c3ccc4ccccc4c3)n(-c3ccnc(N[C@@H]4CCCN(C(=O)C5CC5)C4)n3)c2C1` (stereo partly drawn) [Compound 23c, 1-(2-(((R)-1-(cyclopropanecarbonyl)piperidin-3-yl)amino)pyrimidin-4-yl)-2-(naphthalen-2-yl)-1,4,5,6-tetracyclopenta[d]imidazol-5-carboxamide], the concentration for half-maximal inhibition (IC50) (Table 3) is less than 30 nM. The same measure, in the same setting: next, `NC(=O)C1Cc2nc(-c3ccc4ccccc4c3)n(-c3ccnc(N[C@@H]4CCN(C(=O)C5CC5)C4)n3)c2C1` (stereo partly drawn) [Compound 21c, 1-(2-(((R)-1-(cyclopropanecarbonyl)pyrrolidine-3-yl)amino)pyrimidin-4-yl)-2-(naphthalen-2-yl)-1,4,5,6-tetracyclopenta[d]imidazol-5-carboxamide]: less than 30 nM.
